Data taken from paper PMC5428013, “Peptide-Au Clusters Induced Tumor Cells Apoptosis via Targeting Glutathione Peroxidase-1: The Molecular Dynamics Assisted Experimental Studies” (Scientific Reports, 2017).

Columns and labels:
A549 cells [1] = test: Uptake of Au25P1_9 by A549 cells determined by ICP-MS; assay type: cell-based, human; conditions: Au dose 0, 100, 200, 400, 800 μM, 48 h
Method: The cells were cultured in medium supplemented with 10% fetal bovine serum and 1% penicillin and streptomycin in a culture flask (25 cm^2), reseeded every 2–4 days to maintain subconfluency and kept in humidified atmosphere of 95% air and 5% CO2 at 37 °C. After cells reaching 80% confluence during the exponential growth in culture flask, the cells were harvested and subcultured on 6-well plate (at the density of 1 × 10^5 cells/well) for 24 h. Then the medium was discarded and fresh culture medium with Au25P1_9 at different doses was added to make cells exposed to final Au doses at 0, 100, 200, 400 and 800 μM, respectively. After another 48 h incubation, the cells were treated with trypsin and collected, and then washed thrice with PBS. 5 × 10^5 cells of each sample counted by flow cytometry were predigested by HNO3 and H2O2 at a volume ratio of 3:1 for 12 h and further digested by aqua regia at 160 °C, and then diluted to 10 mL aqueous solution with 1% HCl and 2% HNO3. Finally, the amount of Au25P1_9 taken into cells was measured by ICP-MS with Au calibration curve.

GPx-1 = GPx-1 activity in A549 cell lysate; assay type: biochemical, human; conditions: Au dose 0, 5, 25, 100, 400 μM, 10 min
Method: A549 cells were prior seeded on 6-well plate (at the density of 1 × 10^5 cells/well) for 24 h. Then the medium was discarded and fresh culture medium with Au25P1_9 at different doses was added to make cells exposed to final Au doses at 0, 100, 200, 400 and 800 μM, respectively. After another 48 h incubation, the cells were washed thrice with PBS and lysed by cell lysis buffer containing 1 mM PMSF for 15 min on a shaker at 4 °C. The lysed cells were collected and centrifuged for 20 min at 12,000 g to get total protein of cells. The protein dose of each sample was quantified by BCA Protein Assay Kit and the GPx-1 activity of peptide-Au clusters treated A549 cells was measured by GPx Activity Colorimetric Assay Kit, respectively. For the control experiments, a series of Au doses of Au25P1_9 at 0, 5, 25, 100, 400 μM were incubated with the GPx-1 containing cell lysate of A549 cells for 10 min and the GPx-1 activity of theses samples was also measured. The GPx-1 activity of untreated samples was set as 100%, and that of peptide-Au clusters treated samples were expressed as a relative percentage of untreated ones.

A549 cells [2] = test: Intracellular ROS level by CLSM (CM-H2DCFDA); assay type: cell-based, human; conditions: Au25P1_9, final Au dose 800 µM, 48 h, 5 µM CM-H2DCFDA
Method: For CLSM observation, cells were prior cultured on glass-bottom dishes. Au25P1_9 was added to culture medium and the final Au dose was 800 µM. After 48 h. the cells were washed three times with PBS and incubated with 5 µM CM-H2DCFDA, at 37 °C under darkness for 30 min. Before CLSM observation, the culture medium was discarded and the cells were washed three times with PBS, supplemented with fresh culture medium. Finally, ROS in cells were highlighted by green fluorescence emission of CM-H2DCFDA, imaged under Nikon Ti-e microscope with excitation at wavelengths of 488 nm. For flow cytometry analysis, cells were prior seeded on 6-well plate (at the density of 1 × 10^5 cells/well) for 24 h. Then the medium was discarded and fresh culture medium containing Au25P1_9 with Au dose at 800 μM was added. For another 48 h incubation, the cells were washed thrice with PBS, and incubated with 5 µM CM-H2DCFDA at 37 °C under darkness for 30 min. After washing with PBS, the cells were collected and suspended in ice cold PBS. Fluorescence intensity of 20,000 events was recorded using an Accuri C6 flow cytometer and the level of intracellular ROS was analyzed by Cflow software.

A549 cells [3] = test: Mitochondrial membrane potential assay (JC-1); assay type: cell-based, human; conditions: 800 µM Au, 48 h, JC-1, CLSM
Method: Disruption of ΔΨm is an important step in the induction of cellular apoptosis. JC-1, a sensitive mitochondrial dye, was used to evaluate the ΔΨm. JC-1 can aggregates in the mitochondrial matrix to yield red fluorescence (λem = 590 nm) at high mitochondrial membrane potential, while JC-1 monomer has green fluorescence at low mitochondrial membrane potential (λem = 527 nm). Therefore, using JC-1 easily signals the loss of ΔΨm, an event of early cell apoptosis. After treated with 800 µM of Au25P1_9 for 48 h on glass-bottom dish, cells were stained with JC-1 at 37 °C for 20 min under darkness. Then, cells were washed twice with cold buffer solution and JC-1 fluorescence inside cells was immediately observed by CLSM.

caspase-3 = test: Caspase-3 activity assay (Nucview488, CLSM); assay type: cell-based, human; conditions: 800 µM Au, 48 h, 5 µM Nucview488 substrate
Method: A549 cells were seeded on glass-bottom dishes for 24 h, and the Au25P1_9 was added to culture medium and final Au dose was 800 µM. A549 cells were next exposed to Au25P1_9 for 48 h. Then the cells were washed three times with PBS and incubated with 5 µM Nucview488 caspase-3 substrate (which can be cleaved by caspase-3 and release the DNA dye to stain DNA with bright green fluorescence during apoptosis) at room temperature for 30 min. Finally, cells were washed with PBS and observed by CLSM with excitation at wavelengths of 488 nm.

A549 cells [4] = test: Cell viability assay (CCK-8), A549; assay type: cell-based, human; conditions: 48 h; for cell viability suppression by peptide-Au clusters (words): A549, Au dose 0, 50, 100, 200, 400, 800 µM
Method: Briefly, cells were prior cultured on 96-well plates (at the density of 5 × 10^3 cells/well) for 24 h to allow cells attachment. The cells were treated with different doses of these free peptides (0, 1, 4, 16, 64, 256, 1024 µM) and peptide-Au clusters (0, 50, 100, 200, 400, 800 µM in Au dose) for 48 h, respectively. The cells were washed three times with PBS and then incubated with fresh growth medium containing 10% (v/v) CCK-8 reagent for 1 h at 37 °C for cell viability assay. The absorbance was measured at 450 nm by using a microplate reader (SpectraMAX M2, Sunnyvale, California). Cell viability of untreated cells was set as 100%, and that of treated cells were expressed as a relative percentage of untreated cells. All data were shown as mean percentages ± standard deviation from three independent experiments.

Q: What does the source list for “CCYGGPEEEEEVG [Au25P1_9, Au25 cluster coated by nine P1 peptides (…)]”?
A: cellular uptake (A549 cells [1]): dosage dependent manner; GPx-1 activity in cell lysate (GPx-1): suppressed via an Au dose dependent manner; intracellular ROS by CLSM (A549 cells [2]): obvious green fluorescence, a sign of increased intracellular ROS; mitochondrial membrane potential change (A549 cells [3]): a red to green emission shift can be observed in most cells after treated with Au25P1_9, indicating mitochondria depolarization; caspase-3 activation (caspase-3): strong Nucview488 emission; cell viability suppression by peptide-Au clusters (words) (A549 cells [4]): can suppress cell viability; cell viability suppression by peptide-Au clusters (words) (A549 cells [4]; listed as Au25P19): exhibits the best suppression capacity for A549 cell viability; cell viability (relative to untreated = 100%) (A549 cells [4]; A549, Au dose of 800 μM, CCK-8, mean from three independent experiments): 40%
